Source: patent US20250215029A1 (Recludix Pharma, Inc., priority 2022, published 2025)
Read-outs that look alike come from different tables or passages of the source.

Tests used:
[1] = molecular target: T1, Recombinant STAT6 protein (STAT6 (W123-T658)) (Homo sapiens, UniProt P42226); experiment: STAT6 Fluorescence Polarization (FP) Assay; format: binding; details: 45-minute incubation
T1 construct: Recombinant STAT6 protein (STAT6 (W123-T658))
T1 sequence (P42226 123-658): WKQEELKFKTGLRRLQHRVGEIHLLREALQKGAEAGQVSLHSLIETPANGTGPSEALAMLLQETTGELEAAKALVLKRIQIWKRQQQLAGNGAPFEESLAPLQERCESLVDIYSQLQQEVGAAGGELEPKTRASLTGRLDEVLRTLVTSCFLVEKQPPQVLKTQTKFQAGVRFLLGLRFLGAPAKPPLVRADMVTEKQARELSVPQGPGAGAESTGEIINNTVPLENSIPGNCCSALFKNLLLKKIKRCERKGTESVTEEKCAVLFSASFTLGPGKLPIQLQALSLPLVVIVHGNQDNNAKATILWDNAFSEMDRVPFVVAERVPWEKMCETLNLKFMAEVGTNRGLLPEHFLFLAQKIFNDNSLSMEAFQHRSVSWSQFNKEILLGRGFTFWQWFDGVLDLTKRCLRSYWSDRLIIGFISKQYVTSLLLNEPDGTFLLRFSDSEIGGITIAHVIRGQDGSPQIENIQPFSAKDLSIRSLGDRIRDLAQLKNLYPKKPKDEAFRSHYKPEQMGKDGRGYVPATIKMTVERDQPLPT
Outline: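 Competitive FP binding: recombinant STAT6 (W123-T658) at 250 nM, labeled phosphotyrosine peptide at 2 nM, compounds at 1% DMSO, 45 min at RT before reading. IC50 values were obtained from nonlinear regression of mP versus log concentration.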

[2] = molecular target: T2, Recombinant STAT3 protein (STAT3 (G127-I722)) (Homo sapiens, UniProt P40763); experiment: STAT3 Fluorescence Polarization (FP) Assay; format: binding; details: probe 5-FAM-GpYLPQTV-NH2 2 nM, 45-minute incubation
T2 construct: Recombinant STAT3 protein (STAT3 (G127-I722))
Outline: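 Read-out is fluorescence polarization (mP) after 45 min at room temperature, with IC50 fitted by nonlinear regression against log compound concentration. Mixture: 25 nM STAT3 (G127-I722), 2 nM 5-FAM-GpYLPQTV-NH2 phosphopeptide, 10 mM HEPES pH 7.4 buffer, 1% DMSO.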

[3] = STAT6 (W123-T658) 250 nM, probe 5-FAM-ApYKPFQDLI-NH2 2 nM, read-out: STAT6 (FP assay IC50 class)
[4] = STAT3 (G127-I722) 25 nM, read-out: STAT3 (FP assay IC50 class)
[5] = STAT6 (W123-T658) 250 nM, probe 5-FAM-Ap[…]-NH2 2 nM, read-out: STAT6 (FP assay IC50 class)
[6] = STAT6 250 nM, probe 5-FAM-Ap[…]-NH2 2 nM, read-out: STAT6 (FP assay IC50)
[7] = STAT3 25 nM, read-out: STAT3 (FP assay IC50)

T2 sequence (P40763 127-722): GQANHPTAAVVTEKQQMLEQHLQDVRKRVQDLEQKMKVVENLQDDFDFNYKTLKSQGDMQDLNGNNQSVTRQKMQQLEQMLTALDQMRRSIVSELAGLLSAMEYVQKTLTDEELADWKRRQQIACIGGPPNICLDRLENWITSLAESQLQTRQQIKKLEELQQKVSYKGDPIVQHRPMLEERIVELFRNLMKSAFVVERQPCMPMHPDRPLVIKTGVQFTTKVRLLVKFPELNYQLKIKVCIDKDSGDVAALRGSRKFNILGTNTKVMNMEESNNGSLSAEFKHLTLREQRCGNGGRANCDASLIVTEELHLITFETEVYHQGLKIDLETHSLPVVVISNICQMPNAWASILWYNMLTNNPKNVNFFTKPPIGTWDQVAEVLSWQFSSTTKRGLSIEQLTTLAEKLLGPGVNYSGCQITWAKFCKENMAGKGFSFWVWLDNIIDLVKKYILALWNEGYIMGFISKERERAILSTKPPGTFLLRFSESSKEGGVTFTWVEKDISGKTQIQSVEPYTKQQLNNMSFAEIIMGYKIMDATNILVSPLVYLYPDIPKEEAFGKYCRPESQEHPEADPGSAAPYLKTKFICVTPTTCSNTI

SMILES	IC50 [2, 4]	IC50 [1, 5]	IC50 [1, 6]	IC50 [2, 7]	IC50 [1, 3]
N#CC1CN(C(=O)[C@@H]2C[C@@H](O)[C@H]3C/C=C\C[C@H](NC(=O)c4cc5cc(C(F)(F)P(=O)(O)O)ccc5s4)C(=O)N32)CC1c1ccccc1 (relative stereo) [Compound 758, ((2-(((1R,3S,6S,10aR,Z)-3-((rel-trans)-3-cyano-4-phenylpyrrolidine-1-carbonyl)-1-hydroxy-5-oxo-1,2,3,5,6,7,10,10a-octahydropyrrolo[1,2-a]azocin-6-yl)carbamoyl)benzo [b]thiophen-5-yl)difluoromethyl) phosphonic acid]	1000 to 10000 nM				0.3 to 3 µM
O=C(N[C@H]1C[C@H](OCc2ccccc2)CC[C@H]2CC[C@@H](C(=O)N3CC(C(=O)N4CCOCC4)C3)N2C1=O)c1cc2cc(C(F)(F)P(=O)(O)O)ccc2s1 [Compound 7, ((2-(((3S,6S,8R, 10aR)-8-(benzyloxy)-3-(3-(morpholine-4-carbonyl)azetidine-1-carbonyl)-5-oxodecahydropyrrolo [1,2-a]azocin-6-yl)carbamoyl)benzo[b]thiophen-5-yl)difluoromethyl) phosphonic acid]			3 to 30 µM	100 to 1000 nM	
C[C@@H]1[C@@H](c2cccnc2)CN1C(=O)[C@@H]1CC[C@@H]2CCC[C@H](NC(=O)c3cc4cc(C(F)P(=O)(O)O)ccc4s3)C(=O)N21 (single isomer, unassigned) [Compound 738]	< 100 nM	0.3 to 3 µM			
O=C(N[C@H]1CCCC[C@H]2CC[C@@H](C(=O)N3CCC(c4cc[nH]n4)CC3)N2C1=O)c1cc2cc(C(F)P(=O)(O)O)ccc2s1 (stereo partly drawn) [Compound 589, ((2-(((3S,6S,10aS)-3-(4-(1H-pyrazol-3-yl)piperidine-1-carbonyl)-5-oxodecahydropyrrolo[1,2-a]azocin-6-yl)carbamoyl)benzo[b]thiophen-5-yl)fluoromethyl)phosphonic acid]	1000 to 10000 nM	3 to 30 µM			
O=C(N[C@H]1CCC[C@H]2CC[C@@H](C(=O)N3CC(c4cnccc4OC4CCCC4)C3)N2C1=O)c1cc2cc(C(F)P(=O)(O)O)ccc2s1 (stereo partly drawn) [Compound 695, ((2-(((3S,6S,9aS)-3-(3-(4-(cyclopentyloxy)pyridin-3-yl)azetidine-1-carbonyl)-5-oxooctahydro-1H-pyrrolo[1,2-a]azepin-6-yl)carbamoyl)benzo [b]thiophen-5-yl)fluoromethyl) phosphonic acid]	< 100 nM	3 to 30 µM			
O=C(N[C@H]1CCCC[C@H]2CC[C@@H](C(=O)NC(CO)c3c[nH]c4ncccc34)N2C1=O)c1cc2cc(C(F)(F)P(=O)(O)O)ccc2s1 (stereo partly drawn) [Compound 645, (difluoro(2-(((3S,6S,10aS)-3-((2-hydroxy-1-(1H-pyrrolo[2,3-b]pyridin-3-yl)ethyl)carbamoyl)-5-oxodecahydropyrrolo [1,2-a]azocin-6-yl)carbamoyl)benzo [b]thiophen-5-yl)methyl) phosphonic acid]	100 to 1000 nM	3 to 30 µM			
O=C(N[C@H]1CCCC[C@H]2CC[C@@H](C(=O)N3CC(Cc4ccccc4)C3)N2C1=O)c1cc2cc(C(F)(F)P(=O)(O)O)ccc2s1 [Compound 36, ((2-(((3S,6S,10aS)-3-(3-benzylazetidine-1-carbonyl)-5-oxodecahydro-pyrrolo[1,2-a]azocin-6-yl)carbamoyl)benzo[b]thiophen-5-yl)difluoromethyl) phosphonic acid]			0.3 to 3 µM	< 100 nM	
CCO[C@@H]1CC[C@H](NC(=O)c2cc3cc(C(F)(F)P(=O)(O)O)ccc3s2)C(=O)N2[C@H](CC[C@H]2C(=O)N2CC(C(=O)N3CCOCC3)C2)C1 [Compound 9, ((2-(((3S,6S,9R,10aR)-9-ethoxy-3-(3-(morpholine-4-carbonyl)azetidine-1-carbonyl)-5-oxodecahydropyrrolo [1,2-a]azocin-6-yl)carbamoyl)benzo[b]thiophen-5-yl)difluoromethyl) phosphonic acid]			3 to 30 µM	100 to 1000 nM	
O=C(N[C@H]1CC[C@@H](OCc2ccccc2)C[C@H]2CC[C@@H](C(=O)N3CC(C(=O)N4CCOCC4)C3)N2C1=O)c1cc2cc(C(F)(F)P(=O)(O)O)ccc2s1 [Compound 6, ((2-(((3S,6S,9R,10aR)-9-(benzyloxy)-3-(3-(morpholine-4-carbonyl)azetidine-1-carbonyl)-5-oxodecahydropyrrolo [1,2-a]azocin-6-yl)carbamoyl)benzo[b]thiophen-5-yl)difluoromethyl) phosphonic acid]			3 to 30 µM	100 to 1000 nM	
CC(=O)N1C[C@H](NC(=O)[C@@H]2CC[C@@H]3CCC[C@H](NC(=O)c4cc5cc(CP(=O)(O)O)ccc5s4)C(=O)N32)[C@@H](F)C1 [Compound 219, ((2-(((3S,6S,9aS)-3-(((3S,4S)-1-acetyl-4-fluoropyrrolidin-3-yl)carbamoyl)-5-oxooctahydro-1H-pyrrolo[1,2-a]azepin-6-yl)carbamoyl)benzo[b]thiophen-5-yl)methyl)phosphonic acid]	1000 to 10000 nM	3 to 30 µM			
O=C(N[C@H]1CCC[C@H]2CC[C@@H](C(=O)N3CC(c4n[nH]cc4F)C3)N2C1=O)c1cc2cc(C(F)P(=O)(O)O)ccc2s1 (stereo partly drawn) [Compound 595, (fluoro(2-(((3S,6S,9aS)-3-(3-(4-fluoro-1H-pyrazol-3-yl)azetidine-1-carbonyl)-5-oxooctahydro-1H-pyrrolo[1,2-a]azepin-6-yl)carbamoyl)benzo [b]thiophen-5-yl)methyl) phosphonic acid]	100 to 1000 nM	3 to 30 µM			
C#Cc1ncoc1C1CN(C(=O)[C@@H]2CC[C@@H]3CCCC[C@H](NC(=O)c4cc5cc(C(F)(F)P(=O)(O)O)ccc5s4)C(=O)N32)C1 [Compound 64, ((2-(((3S,6S,10aS)-3-(3-(4-ethynyloxazol-5-yl)azetidine-1-carbonyl)-5-oxodecahydropyrrolo [1,2-a]azocin-6-yl)carbamoyl)benzo[b]thiophen-5-yl)difluoromethyl) phosphonic acid]			0.3 to 3 µM	< 100 nM	

Second part, led by results:

IC50 [2, 4]	IC50 [1, 5]	IC50 [1, 6]	IC50 [2, 7]	SMILES	IC50 [1, 3]
1000 to 10000 nM	0.3 to 3 µM			O=C(N[C@H]1CCCC[C@H]2CC[C@@H](C(=O)N3CCC(c4ccn(C5CC5)c(=O)c4)C3)N2C1=O)c1ccc2ccc(C(F)P(=O)(O)O)cc2c1 (stereo partly drawn) [Compound 906, ((7-(((3S,6S,10aS)-3-(3-(1-cyclopropyl-2-oxo-1,2-dihydropyridin-4-yl)pyrrolidine-1-carbonyl)-5-oxodecahydropyrrolo[1,2-a]azocin-6-yl)carbamoyl)naphthalen-2-yl)fluoromethyl) phosphonic acid]	
1000 to 10000 nM	0.3 to 3 µM			Cn1ccc([C@@H]2CN(C(=O)[C@@H]3CC[C@@H]4CCC[C@H](NC(=O)c5cc6cc([C@@H](F)P(=O)(O)O)ccc6s5)C(=O)N43)C3(CC3)C2)cc1=O [Compound 831, ((S)-fluoro(2-(((3S,6S,9aS)-3-((R)-6-(1-methyl-2-oxo-1,2-dihydropyridin-4-yl)-4-azaspiro[2.4]heptane-4-carbonyl)-5-oxooctahydro-1H-pyrrolo[1,2-a]azepin-6-yl)carbamoyl)benzo [b]thiophen-5-yl)methyl) phosphonic acid]	
1000 to 10000 nM				O=C(N[C@H]1CCCC[C@H]2CC[C@@H](C(=O)N3CC(c4cccnc4)CC34CC4)N2C1=O)c1cc2cc([C@@H](F)P(=O)(O)O)ccc2s1 (stereo in doubt) [Compound 910, ((S)-fluoro(2-(((3S,6S,10aS)-5-oxo-3-((R)-6-(pyridin-3-yl)-4-azaspiro[2.4]heptane-4-carbonyl)decahydropyrrolo[1,2-a]azocin-6-yl)carbamoyl)benzo [b]thiophen-5-yl)methyl) phosphonic acid]	≤ 0.3 µM
1000 to 10000 nM	0.3 to 3 µM			N#C[C@H]1[C@H](c2ccccc2)CN(C(=O)[C@@H]2CC[C@@H]3CCC[C@H](NC(=O)c4cc5cc(CP(=O)(O)O)ccc5s4)C(=O)N32)C12CC2 [Compound 922, ((2-(((3S,6S,9aS)-3-((6R,7S)-7-cyano-6-phenyl-4-azaspiro[2.4]heptane-4-carbonyl)-5-oxooctahydro-1H-pyrrolo[1,2-a]azepin-6-yl)carbamoyl)benzo [b]thiophen-5-yl)methyl) phosphonic acid]	
100 to 1000 nM	3 to 30 µM			CN(C)c1cncc(C2CN(C(=O)[C@@H]3CC[C@@H]4CCC[C@H](NC(=O)c5cc6cc([C@H](F)P(=O)(O)O)ccc6s5)C(=O)N43)C2)c1Cl (single isomer, unassigned) [Compound 713]	
